Legend:
[1] = tested on: HCC1806 Ub-PCNA (USP1); experiment: USP1 Western Blot Protocol (HCC1806 Ub-PCNA); assay type: cell-based; conditions: HCC1806 cells, 4 hours
Procedure, shortened: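 HCC1806 cells seeded overnight, then treated 4 h at 37 °C with a 5-point, 4-fold dilution series (0.1% DMSO). Lysates immunoblotted for Ub-PCNA with fluorescent detection; inhibition expressed as % vehicle from Ub-PCNA upregulation, IC50 by four-parameter logistic fit.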

[2] = Liver microsomal stability (HLM); assay type: in vitro ADME; conditions: human, liver microsomes, human liver microsomes 0.5 mg/mL, 1 μM compound, NADPH
[3] = tested on: MDA-MB-436 cells; experiment: CTG Protocol (MDA-MB-436 GI50), antiproliferative activity; assay type: cell-based, human; conditions: MDA-MB-436 cells (BRCA1 mutation), 7-day incubation, CellTiter-Glo
Procedure, shortened: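 BRCA1-mutant MDA-MB-436 cells were seeded at 1000 cells/well in DMEM, left overnight, then exposed to a 9-point, 3-fold compound series for 7 days at 37 °C, 5% CO2. Viability was read by CellTiter-Glo luminescence. % inhibition was plotted against concentration to derive GI50.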

[4] = target: T1, recombinant USP1/UAF1 enzyme complex (Homo sapiens, UniProt O94782); experiment: Enzyme assay: deubiquitinase fluorometric assay with ubiquitin-Rhodamine substrate; assay type: biochemical; conditions: USP1/UAF1, Ub-Rho110 substrate, 2 hours preincubation, 1 hour reaction
T1 construct: purchased Biortus
Description: Enzymatic inhibitory potency of the compounds was assessed in a deubiquitinase fluorometric assay using ubiquitin-Rhodamine (Ub-Rho110, R&D Systems) as substrate and the recombinant USP1/UAF1 enzyme complex (Biortus). Assays were performed in a final volume of 12 μL using black 384-well plates (Corning #4514) containing 50 mM HEPES (pH 7.5, BioRoYee), 0.5 mM EDTA, 1 mM dithiothreitol, 0.1 mg/mL bovine serum albumin, 50 nM Ub-Rhol10, 0.004 nM USP1/UAF1, and series diluted compounds from 10 μM to 0.5 nM (10 dilution steps). Assay-ready plates containing 40 nL of Echo-dispensed compound in DMSO were reconstituted with 2 μL of ddH2O, then 5 μL of USP1/UAF1 enzyme mixture was added and preincubated at room temperature for 2 hours. Enzymatic reaction was initiated by the addition of […] substrate mixture and assay allowed to proceed for 1 hour at room temperature before quenching with 3 μL of 150 mM citric acid. Fluorescence signal was detected via TECAN SPARK with excitation at 485 nm and emission at 535 nm. Data analysis was done using GraphPad Prism8 and IC50 values were obtained by 4-parameter logistic curve fitting.
Certain compounds were tested in the assays.

T1 sequence (O94782 whole entry): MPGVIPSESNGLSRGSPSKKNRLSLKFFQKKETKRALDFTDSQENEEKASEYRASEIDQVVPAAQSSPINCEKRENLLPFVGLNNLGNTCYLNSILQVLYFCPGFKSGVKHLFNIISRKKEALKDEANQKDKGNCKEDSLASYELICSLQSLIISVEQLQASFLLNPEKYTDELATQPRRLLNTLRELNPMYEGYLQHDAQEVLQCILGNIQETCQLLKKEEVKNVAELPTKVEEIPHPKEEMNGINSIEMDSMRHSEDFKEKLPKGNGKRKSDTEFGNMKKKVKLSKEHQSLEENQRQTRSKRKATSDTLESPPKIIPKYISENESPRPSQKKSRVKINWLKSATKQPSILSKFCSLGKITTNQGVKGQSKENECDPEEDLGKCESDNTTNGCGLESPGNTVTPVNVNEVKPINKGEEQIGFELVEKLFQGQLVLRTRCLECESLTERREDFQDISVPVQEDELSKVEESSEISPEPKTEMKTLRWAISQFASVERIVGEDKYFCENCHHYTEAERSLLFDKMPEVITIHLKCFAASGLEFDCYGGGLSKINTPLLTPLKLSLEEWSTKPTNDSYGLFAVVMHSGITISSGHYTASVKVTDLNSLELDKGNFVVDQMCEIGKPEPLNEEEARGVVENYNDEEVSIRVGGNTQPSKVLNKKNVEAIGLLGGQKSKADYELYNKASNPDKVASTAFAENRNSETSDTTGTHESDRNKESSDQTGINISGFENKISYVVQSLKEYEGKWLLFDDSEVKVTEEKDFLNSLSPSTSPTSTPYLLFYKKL
T1 sequence (Q8TAF3 whole entry partner): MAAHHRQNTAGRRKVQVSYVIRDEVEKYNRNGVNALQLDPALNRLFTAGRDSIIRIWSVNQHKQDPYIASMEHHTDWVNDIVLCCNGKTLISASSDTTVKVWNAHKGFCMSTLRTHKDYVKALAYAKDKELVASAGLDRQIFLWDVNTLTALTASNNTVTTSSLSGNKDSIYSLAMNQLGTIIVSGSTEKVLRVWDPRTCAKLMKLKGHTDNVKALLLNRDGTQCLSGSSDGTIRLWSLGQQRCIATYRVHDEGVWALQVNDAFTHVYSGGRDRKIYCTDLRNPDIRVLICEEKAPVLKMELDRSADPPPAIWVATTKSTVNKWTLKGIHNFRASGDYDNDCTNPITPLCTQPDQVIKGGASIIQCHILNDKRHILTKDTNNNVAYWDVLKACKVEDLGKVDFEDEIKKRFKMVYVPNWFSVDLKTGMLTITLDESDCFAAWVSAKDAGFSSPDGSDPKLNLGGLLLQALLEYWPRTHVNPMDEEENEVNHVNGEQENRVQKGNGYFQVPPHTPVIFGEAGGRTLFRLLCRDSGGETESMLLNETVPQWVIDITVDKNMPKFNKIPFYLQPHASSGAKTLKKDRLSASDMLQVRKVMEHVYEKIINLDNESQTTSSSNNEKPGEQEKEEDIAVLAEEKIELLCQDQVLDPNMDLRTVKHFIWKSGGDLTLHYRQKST

COc1ncnc(C2CC2)c1-c1ncc2ccc(=O)n(Cc3ccc(-c4ncccc4OC(C)C)cc3)c2n1 [Compound I-33]
IC50 ([1]; Homo sapiens): 10 to 100 nM | microsomal CLint at 1 μM [2]: ≥ 50 µL/min/mg | GI50 ([3]; Homo sapiens, 168 h): 10 to 100 nM | IC50 [4]: 10 to 100 nM

COc1cccnc1-c1ccc(Cn2c(=O)ccc3cnc(-c4c(OC)ncnc4C4CC4)nc32)cc1 [Compound 66, 2-(4-cyclopropyl-6-methoxypyrimidin-5-yl)-8-{[4-(3-methoxypyridin-2-yl)phenyl]methyl}pyrido[2,3-d]pyrimidin-7-one]
IC50 ([1]; Homo sapiens): 10 to 100 nM | GI50 ([3]; Homo sapiens, 168 h): 10 to 100 nM | IC50 [4]: 10 to 100 nM

COc1cc(Cn2c(=O)ccc3cnc(-c4c(OC)ncnc4C4CC4)nc32)cc(F)c1-c1nc(C(F)(F)F)cn1C1CC1 [Compound 53, 8-({4-[1-cyclopropyl-4-(trifluoromethyl)imidazol-2-yl]-3-fluoro-5-methoxyphenyl}methyl)-2-(4-cyclopropyl-6-methoxypyrimidin-5-yl)pyrido[2,3-d]pyrimidin-7-one]
IC50 ([1]; Homo sapiens): 10 to 100 nM | GI50 ([3]; Homo sapiens, 168 h): < 10 nM | IC50 [4]: 10 to 100 nM

COc1ncnc(C2CC2)c1-c1ncc2cc(C(F)F)c(=O)n(Cc3ccc(-c4nc(C(F)(F)F)cn4C)cc3)c2n1 [Compound 77]
IC50 [1]: 10 to 100 nM | GI50 [3]: 10 to 100 nM | IC50 [4]: 10 to 100 nM

COc1ncnc(C2CC2)c1-c1ncc2c(n1)N(Cc1ccc(-c3nc(C(F)(F)F)cn3C(C)C)cc1)C(=O)N(C)C2 [Compound I-25]
IC50 ([1]; Homo sapiens): 10 to 100 nM | microsomal CLint at 1 μM [2]: ≥ 50 µL/min/mg | GI50 ([3]; Homo sapiens, 168 h): 10 to 100 nM | IC50 [4]: 10 to 100 nM

COc1ncnc(C2CC2)c1-c1ncc2cc(CN3CCNCC3)c(=O)n(Cc3ccc(-c4nc(C(F)(F)F)cn4C)cc3)c2n1 [Compound 54, 2-(4-cyclopropyl-6-methoxypyrimidin-5-yl)-8-({4-[1-methyl-4-(trifluoromethyl)imidazol-2-yl]phenyl}methyl)-6-(piperazin-1-ylmethyl)pyrido[2,3-d]pyrimidin-7-one]
IC50 ([1]; Homo sapiens): 100 to 1000 nM | GI50 ([3]; Homo sapiens, 168 h): 10 to 100 nM | IC50 [4]: 10 to 100 nM

CCc1ncnc(OC)c1-c1ncc2ccc(=O)n(Cc3ccc(-c4nc(C(F)(F)F)cn4C)cc3)c2n1 [Compound I-48, 2-(4-Ethyl-6-Methoxypyrimidin-5-Yl)-8-({4-[1-Methyl-4-(Trifluoromethyl)Imidazol-2-Yl]Phenyl}Methyl)Pyrido[2,3-d]Pyrimidin-7-One]
IC50 ([1]; Homo sapiens): 10 to 100 nM | GI50 ([3]; Homo sapiens, 168 h): 10 to 100 nM | IC50 [4]: 10 to 100 nM

COc1ncnc(C2CC2)c1-c1ncc2ccc(=O)n(Cc3ccc(-c4nc(C)ccc4F)cc3)c2n1 [Compound I-35]
IC50 ([1]; Homo sapiens): 10 to 100 nM | GI50 ([3]; Homo sapiens, 168 h): 10 to 100 nM | IC50 [4]: 100 to 1000 nM

COc1ncnc(C2CC2)c1-c1ncc2ccc(=O)n(Cc3ccc(-c4ncccc4C)cc3)c2n1 [Compound 74, 2-(4-cyclopropyl-6-methoxypyrimidin-5-yl)-8-{[4-(3-methylpyridin-2-yl)phenyl]methyl}pyrido[2,3-d]pyrimidin-7-one]
IC50 ([1]; Homo sapiens): 10 to 100 nM | GI50 ([3]; Homo sapiens, 168 h): 10 to 100 nM | IC50 [4]: 10 to 100 nM

CCn1cc(C(F)(F)F)nc1-c1ccc(Cn2c(=O)c(Br)cc3cnc(-c4c(OC)ncnc4C4CC4)nc32)cc1 [Compound I-38, 6-Bromo-2-(4-Cyclopropyl-6-Methoxypyrimidin-5-Yl)-8-({4-[1-Ethyl-4-(Trifluoromethyl)Imidazol-2-Yl]Phenyl}Methyl)Pyrido[2,3-d]Pyrimidin-7-One]
IC50 ([1]; Homo sapiens): 10 to 100 nM | GI50 ([3]; Homo sapiens, 168 h): 10 to 100 nM | IC50 [4]: 10 to 100 nM

COc1ncnc(C2CC2)c1-c1ncc2c(n1)N(Cc1ccc(-c3nc(C(F)(F)F)cn3C(C)C)cc1)C(=O)NC2 [Compound I-24]
IC50 ([1]; Homo sapiens): 10 to 100 nM | microsomal CLint at 1 μM [2]: ≥ 50 µL/min/mg | GI50 ([3]; Homo sapiens, 168 h): 10 to 100 nM | IC50 [4]: 10 to 100 nM

CCn1cc(C(F)(F)F)nc1-c1ccc(Cn2c(=O)cnc3cnc(-c4c(OC)ncnc4C4CC4)nc32)cc1 [Compound I-28]
IC50 ([1]; Homo sapiens): < 10 nM | GI50 ([3]; Homo sapiens, 168 h): < 10 nM | IC50 [4]: 10 to 100 nM

COc1ncnc(C2CC2)c1-c1ncc2c(=O)n(C)c(=O)n(Cc3ccc(-c4nc(C(F)(F)F)cn4C(C)C)cc3)c2n1 [Compound I-26, 7-(4-cyclopropyl-6-methoxypyrimidin-5-yl)-1-({4-[1-isopropyl-4-(trifluoromethyl)imidazol-2-yl]phenyl}methyl)-3-methylpyrimido[4,5-d][1,3]diazine-2,4-dione]
IC50 ([1]; Homo sapiens): 100 to 1000 nM | GI50 ([3]; Homo sapiens, 168 h): 10 to 100 nM | IC50 [4]: 10 to 100 nM

COc1ncnc(C2CC2)c1-c1ncc2ccc(=O)n(Cc3ccc(-c4ncccc4N4CCN(C)CC4)cc3)c2n1 [Compound 85, 2-(4-cyclopropyl-6-methoxypyrimidin-5-yl)-8-({4-[3-(4-methylpiperazin-1-yl)pyridin-2-yl]phenyl}methyl)pyrido[2,3-d]pyrimidin-7-one]
IC50 ([1]; Homo sapiens): 100 to 1000 nM | GI50 ([3]; Homo sapiens, 168 h): 10 to 100 nM | IC50 [4]: 10 to 100 nM

COc1ncnc(C2CC2)c1-c1ncc2ccc(=O)n(Cc3ccc(-c4nc(F)ccc4OC(C)C)cc3)c2n1 [Compound 76, 2-(4-cyclopropyl-6-methoxypyrimidin-5-yl)-8-{[4-(6-fluoro-3-isopropoxypyridin-2-yl)phenyl]methyl}pyrido[2,3-d]pyrimidin-7-one]
IC50 ([1]; Homo sapiens): 10 to 100 nM | GI50 ([3]; Homo sapiens, 168 h): 10 to 100 nM | IC50 [4]: 10 to 100 nM

COc1ncnc(C2CC2)c1-c1ncc2ccc(=O)n(Cc3ccc(-c4nc(C(F)(F)F)cn4C4CC4)cc3)c2c1F [Compound 82]
IC50 ([1]; Homo sapiens): 10 to 100 nM | GI50 ([3]; Homo sapiens, 168 h): 10 to 100 nM | IC50 [4]: 10 to 100 nM

COc1ncnc(C2CC2)c1-c1ncc2cc(C3=CCN(C)CC3)c(=O)n(Cc3ccc(-c4nc(C(F)(F)F)cn4C)cc3)c2n1 [Compound 68]
IC50 [1]: 100 to 1000 nM | GI50 [3]: 10 to 100 nM | IC50 [4]: < 10 nM

COc1cc(Cn2c(=O)ccc3cnc(-c4c(OC)ncnc4C4CC4)nc32)cc(F)c1-c1nc(C(F)(F)F)cn1C [Compound 73, 2-(4-Cyclopropyl-6-Methoxypyrimidin-5-Yl)-8-({3-Fluoro-5-Methoxy-4-[1-Methyl-4-(Trifluoromethyl)Imidazol-2-Yl]Phenyl}Methyl)Pyrido[2,3-d]Pyrimidin-7-One]
IC50 ([1]; Homo sapiens): 10 to 100 nM | GI50 ([3]; Homo sapiens, 168 h): 10 to 100 nM | IC50 [4]: 10 to 100 nM
